Source: patent publication US10745382B2 (BRISTOL-MYERS SQUIBB COMPANY, priority 2015, dated 2020)
Where two headings read alike, the source gives them in different places.

Target: T1, PD-1/PD-L1 (Homo sapiens, UniProt Q9NZQ7)
T1 construct: made in house; host or cells: HEK293T
Test: PD-1/PD-L1 Homogenous Time-Resolved Fluorescence (HTRF) binding assay
Settings: PD-L1-His 10 nM, PD-1-Ig 20 nM, read-out: Range or IC50
In short: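 Read-out is time-resolved FRET between europium cryptate-labelled anti-Ig (1 nM final) and APC-labelled anti-His (20 nM final), both dispensed onto the binding mix. Assay buffer: dPBS containing 0.1% bovine serum albumin and 0.05% Tween-20.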

T1 sequence (Q9NZQ7 with tags, fused parts or gaps): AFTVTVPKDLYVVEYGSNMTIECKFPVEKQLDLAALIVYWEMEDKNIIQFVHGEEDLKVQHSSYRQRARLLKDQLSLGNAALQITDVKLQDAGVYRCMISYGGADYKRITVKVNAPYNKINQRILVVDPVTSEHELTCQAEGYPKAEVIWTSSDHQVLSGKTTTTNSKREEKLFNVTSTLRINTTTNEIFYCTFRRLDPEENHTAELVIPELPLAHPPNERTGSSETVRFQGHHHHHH

Compound	IC50 (value given as range class)	IC50 (numeric IC50)
Cc1c(COc2cc(OCc3cncc(C#N)c3)c(CN(CCO)CCCO)cc2Cl)cccc1-c1cccc(CN(C)CCN2CCS(=O)(=O)CC2)c1C [Example 4085, 5-((4-chloro-5-((3′-(((2-(1,1-dioxidothiomorpholino)ethyl)(methyl)amino)methyl)-2,2′-dimethyl-[1,1′-biphenyl]-3-yl)methoxy)-2-(((2-hydroxyethyl)(3-hydroxypropyl)amino)methyl)phenoxy)methyl)nicotinonitrile]	10 to 100 nM	–
CCN(CC)C(=O)c1cccc(-c2cccc(COc3cc(OCc4cncc(C#N)c4)c(CN4CCCC[C@H]4C(=O)O)cc3Cl)c2C)c1C [Example 4040, (S)-1-(5-chloro-2-((5-cyanopyridin-3-yl)methoxy)-4-((3′-(diethylcarbamoyl)-2,2′-dimethyl-[1,1′-biphenyl]-3-yl)methoxy)benzyl)piperidine-2-carboxylic Acid]	–	92 nM
COc1cc(OCc2cccc(-c3cccc(OCCCN4CC[C@@H](O)C4)c3C)c2C)c(Cl)cc1CN[C@](C)(CO)C(=O)O [Example 3034, (2R)-2-((5-chloro-4-((3′-(3-((R)-3-hydroxypyrrolidin-1-yl)propoxy)-2,2′-dimethyl-[1,1′-biphenyl]-3-yl)methoxy)-2-methoxybenzyl)amino)-3-hydroxy-2-methylpropanoic Acid]	0.21 to 10 nM	–
Cc1c(COc2cc(OCc3cncc(C#N)c3)c(CN[C@](C)(CO)C(=O)O)cc2Cl)cccc1-c1cccc(OCCCN2CCC(CO)(C(=O)O)CC2)c1C [Example 1112, (R)-1-(3-((3′-((4-(((2-carboxy-1-hydroxypropan-2-yl)amino)methyl)-2-chloro-5-((5-cyanopyridin-3-yl)methoxy)phenoxy)methyl)-2,2′-dimethyl-[1,1′-biphenyl]-3-yl)oxy)propyl)-4-(hydroxymethyl)piperidine-4-carboxylic Acid]	0.21 to 10 nM	–
CO[C@@H]1CCN(CCCOc2cccc(-c3cccc(COc4cc(OCc5cncc(C#N)c5)c(CO)cc4Cl)c3C)c2C)C1 [Example 2277, 5-((4-chloro-2-(hydroxymethyl)-5-((3′-(3-((R)-3-methoxypyrrolidin-1-yl)propoxy)-2,2′-dimethylbiphenyl-3-yl)methoxy)phenoxy)methyl)nicotinonitrile]	0.21 to 10 nM	–
Cc1c(COc2cc(OCc3cncc(C#N)c3)c(CN3CCCC[C@H]3C(=O)O)cc2Cl)cccc1-c1cccc(OCCCN2CC[C@@](O)(c3ccc(Cl)cc3)[C@](C)(O)C2)c1Cl [Example 1088, (S)-1-(5-chloro-4-((2′-chloro-3′-(3-((3R,4R)-4-(4-chlorophenyl)-3,4-dihydroxy-3-methylpiperidin-1-yl)propoxy)-2-methyl-[1,1′-biphenyl]-3-yl)methoxy)-2-((5-cyanopyridin-3-yl)methoxy)benzyl)piperidine-2-carboxylic Acid]	0.21 to 10 nM	–
CNC(=O)c1cccc(-c2cccc(COc3cc(OCc4cncc(C#N)c4)c(CN4CCCC[C@H]4C(=O)O)cc3Cl)c2C)c1C [Example 4011, (S)-1-(5-chloro-2-((5-cyanopyridin-3-yl)methoxy)-4-((2,2′-dimethyl-3′-(methylcarbamoyl)-[1,1′-biphenyl]-3-yl)methoxy)benzyl)piperidine-2-carboxylic Acid]	10 to 100 nM	–
Cc1c(COc2cc(OCc3cncc(C#N)c3)c(CNC(C)(CO)CO)cc2Cl)cccc1-c1cccc(OCCCNC[C@H](O)CO)c1Cl [Example 2097, (S)-5-((4-chloro-5-((2′-chloro-3′-(3-((2,3-dihydroxypropyl)amino)propoxy)-2-methyl-[1,1′-biphenyl]-3-yl)methoxy)-2-(((1,3-dihydroxy-2-methylpropan-2-yl)amino)methyl)phenoxy)methyl)nicotinonitrile]	0.21 to 10 nM	–
COC(=O)C1(O)CCN(CCCOc2cccc(-c3cccc(COc4cc(OCc5cncc(S(C)(=O)=O)c5)c(CN[C@H](CO)C(=O)O)cc4Cl)c3C)c2C)C1 (stereo partly drawn) [Example 1056, (2R)-2-((5-chloro-4-((3′-(3-(3-hydroxy-3-(methoxycarbonyl)pyrrolidin-1-yl)propoxy)-2,2′-dimethyl-[1,1′-biphenyl]-3-yl)methoxy)-2-((5-(methylsulfonyl)pyridin-3-yl)methoxy)benzyl)amino)-3-hydroxypropanoic Acid]	0.21 to 10 nM	–
CC(CO)(CO)NCc1cc(Cl)c(OCc2cccc(-c3cccc(OCCCN4CC[C@@H](O)C4)c3Cl)c2Cl)cc1OCc1cncc(C#N)c1 [Example 2053, (R)-5-((4-chloro-5-((2,2′-dichloro-3′-(3-(3-hydroxypyrrolidin-1-yl)propoxy)-[1,1′-biphenyl]-3-yl)methoxy)-2-(((1,3-dihydroxy-2-methylpropan-2-yl)amino)methyl)phenoxy)methyl)nicotinonitrile]	0.21 to 10 nM	–
Cc1c(COc2cc(OCc3cncc(C#N)c3)c(CN3CCCC[C@H]3C(=O)O)cc2Cl)cccc1-c1cccc(OCCCNCC(C)(C)CO)c1C [Example 2234, (2S)-1-(5-chloro-2-((5-cyanopyridin-3-yl)methoxy)-4-((3′-(3-(3-hydroxy-2,2-dimethylpropylamino)propoxy)-2,2′-dimethylbiphenyl-3-yl)methoxy)benzyl)piperidine-2-carboxylic Acid]	0.21 to 10 nM	–

More lines, now with the values ahead:

IC50 (value given as range class)	IC50 (numeric IC50)	Compound
0.21 to 10 nM	–	CCC(CO)(CO)NCc1cc(Cl)c(OCc2cccc(-c3cccc(OCCCNC[C@H](O)CO)c3C)c2C)cc1OCc1cncc(C#N)c1 [Example 2279, (S)-5-((4-chloro-5-((3′-(3-((2,3-dihydroxypropyl)amino)propoxy)-2,2′-dimethyl-[1,1′-biphenyl]-3-yl)methoxy)-2-(((1-hydroxy-2-(hydroxymethyl)butan-2-yl)amino)methyl)phenoxy)methyl)nicotinonitrile]
0.21 to 10 nM	–	Cc1c(COc2cc(OCc3cncc(C#N)c3)c(CNC(CO)CO)cc2Cl)cccc1-c1cccc(OCC2(CN3CC[C@@H](O)C3)CC2)c1C [Example 2342, (R)-5-((4-chloro-2-(((1,3-dihydroxypropan-2-yl)amino)methyl)-5-((3′-((1-((3-hydroxypyrrolidin-1-yl)methyl)cyclopropyl)methoxy)-2,2′-dimethyl-[1,1′-biphenyl]-3-yl)methoxy)phenoxy)methyl)nicotinonitrile]
0.21 to 10 nM	–	Cc1c(OCCCN2CCS(=O)(=O)CC2)cccc1-c1cccc(COc2cc(OCc3cncc(C#N)c3)c(CN3CCCC[C@H]3C(=O)O)cc2Cl)c1Cl [Example 2310, (S)-1-(5-chloro-4-((2-chloro-3′-(3-(1,1-dioxidothiomorpholino)propoxy)-2′-methyl-[1,1′-biphenyl]-3-yl)methoxy)-2-((5-cyanopyridin-3-yl)methoxy)benzyl)piperidine-2-carboxylic Acid]
0.21 to 10 nM	–	Cc1c(CCCCN2CC[C@@H](O)C2)cccc1-c1cccc(COc2cc(OCc3cncc(C#N)c3)c(CN[C@@H](CN)C(=O)O)cc2Cl)c1C [Example 4069, (S)-3-amino-2-((5-chloro-2-((5-cyanopyridin-3-yl)methoxy)-4-((3′-(4-((R)-3-hydroxypyrrolidin-1-yl)butyl)-2,2′-dimethyl-[1,1′-biphenyl]-3-yl)methoxy)benzyl)amino)propanoic Acid]
0.21 to 10 nM	–	Cc1c(COc2cc(OCc3cncc(C#N)c3)c(CNC(CO)CO)cc2Cl)cccc1-c1cccc(OCCCN2CCCCC2)c1Cl [Example 2051, 5-((4-chloro-5-((2′-chloro-2-methyl-3′-(3-(piperidin-1-yl)propoxy)-[1,1′-biphenyl]-3-yl)methoxy)-2-(((1,3-dihydroxypropan-2-yl)amino)methyl)phenoxy)methyl)nicotinonitrile]
0.21 to 10 nM	–	Cc1c(COc2cc(OCc3cncc(C#N)c3)c(CN3CCCC[C@H]3C(=O)O)c(C)c2Cl)cccc1-c1cccc(OCCCN2CC[C@@H](O)C2)c1C [Example 4101, (S)-1-(3-chloro-6-((5-cyanopyridin-3-yl)methoxy)-4-((3′-(3-((R)-3-hydroxypyrrolidin-1-yl)propoxy)-2,2′-dimethyl-[1,1′-biphenyl]-3-yl)methoxy)-2-methylbenzyl)piperidine-2-carboxylic Acid]
0.21 to 10 nM	–	Cc1c(COc2cc(OCc3cncc(C(N)=O)c3)c(CN[C@H](CO)C(=O)O)cc2Cl)cccc1-c1cccc(OCCCN2CCC(CO)(C(=O)O)C2)c1C (stereo partly drawn) [Example 1053, 1-(3-((3′-((5-((5-carbamoylpyridin-3-yl)methoxy)-4-((((R)-1-carboxy-2-hydroxyethyl)amino)methyl)-2-chlorophenoxy)methyl)-2,2′-dimethyl-[1,1′-biphenyl]-3-yl)oxy)propyl)-3-(hydroxymethyl)pyrrolidine-3-carboxylic Acid]
0.21 to 10 nM	–	Cc1c(COc2cc(OCc3cncc(C#N)c3)c(CO)cc2Cl)cccc1-c1cccc(OCCCN2CC(N(C)C)C2)c1Cl [Example 2015, 5-((4-chloro-5-((2′-chloro-3′-(3-(3-(dimethylamino)azetidin-1-yl)propoxy)-2-methyl-[1,1′-biphenyl]-3-yl)methoxy)-2-(hydroxymethyl)phenoxy)methyl)nicotinonitrile]
0.21 to 10 nM	–	Cc1c(COc2cc(OCc3cncc(C#N)c3)c(CN3CCCC[C@H]3C(=O)O)cc2Cl)cccc1-c1cccc(OCCCN2C[C@@H](C)O[C@@H](C)C2)c1C [Example 3049, (S)-1-(5-chloro-2-((5-cyanopyridin-3-yl)methoxy)-4-((3′-(3-((2S,6R)-2,6-dimethylmorpholino)propoxy)-2,2′-dimethyl-[1,1′-biphenyl]-3-yl)methoxy)benzyl)piperidine-2-carboxylic Acid]
0.21 to 10 nM	–	Cc1c(COc2cc(OCc3cncc(C#N)c3)c(CN3CCCC[C@H]3C(=O)O)cc2Cl)cccc1-c1cccc(OCCCN2CCC[C@@H](O)C2)c1C [Example 2223, (2S)-1-(5-chloro-2-((5-cyanopyridin-3-yl)methoxy)-4-((3′-(3-((R)-3-hydroxypiperidin-1-yl)propoxy)-2,2′-dimethylbiphenyl-3-yl)methoxy)benzyl)piperidine-2-carboxylic Acid]
